# In patent publication US20260184710A1, “CASITAS B-LINEAGE LYMPHOMA PROTOONCOGENE B (CBL-B) DEGRADING COMPOUNDS AND ASSOCIATED METHODS OF USE” (Arvinas Operations, Inc., priority 2022, published 2026):
# Target: T1, Cbl-b (Homo sapiens, UniProt Q13191)
# T1 construct: Cbl-b-HiBit KI Jurkat Cells were purchased from Promega; host or cells: Cbl-b-HiBiT knock-in Jurkat cells
# Assay: Cbl-b Degradation Method B (Nano-Glo HiBiT lytic detection)
# Assay type: cell-based
# Conditions: Cbl-b-HiBit KI Jurkat Cells, incubated at least 6-24 hours; for DC50: half maximal degradation, read-out: Cbl-b Degredation Method B IC50; for Dmax: maximum degradation observed, read-out: Cbl-b Degredation Method B Dmax (%)
# Protocol: Cbl-b Degradation Method B [table] Cbl-b-HiBit KI Jurkat Cells were purchased from Promega, and cell media consisted of RPMI 1640 with 10% […] and 1% pen/strep. The cells were counted, measured for viability, and 35 μL of the cell solution was seeded into 384 well flat bottom plates at a ratio of 20,000 cells per 35 μL. After which, the plates were incubated for ˜24 hours at 37° C. and 5% CO2. Compounds were ordered from Evotec in a 384 well plate at a 1 mM top concentration in DMSO and serially diluted 1:3 in DMSO for an 11-point dose response. Using the Bravo instrument, 1 uL of compound solution or DMSO was transferred to 125 uL of media. Each well was treated with 5 μL of compound plus media mixture or DMO and subsequently incubated for at least 6-24 hours at 37° C. and 5% CO2. After incubation, 30 μL of either NanoGlo media was added to each cell, and the plates read on the Synergy Neo2 machine. The concentration of an exemplary compound that leads to half maximal degradation (DC50) as well as the maximum degradation observed (Dmax, conventionally expressed as a percentage of control) is shown below in Table 2.
# T1 sequence (Q13191 whole entry): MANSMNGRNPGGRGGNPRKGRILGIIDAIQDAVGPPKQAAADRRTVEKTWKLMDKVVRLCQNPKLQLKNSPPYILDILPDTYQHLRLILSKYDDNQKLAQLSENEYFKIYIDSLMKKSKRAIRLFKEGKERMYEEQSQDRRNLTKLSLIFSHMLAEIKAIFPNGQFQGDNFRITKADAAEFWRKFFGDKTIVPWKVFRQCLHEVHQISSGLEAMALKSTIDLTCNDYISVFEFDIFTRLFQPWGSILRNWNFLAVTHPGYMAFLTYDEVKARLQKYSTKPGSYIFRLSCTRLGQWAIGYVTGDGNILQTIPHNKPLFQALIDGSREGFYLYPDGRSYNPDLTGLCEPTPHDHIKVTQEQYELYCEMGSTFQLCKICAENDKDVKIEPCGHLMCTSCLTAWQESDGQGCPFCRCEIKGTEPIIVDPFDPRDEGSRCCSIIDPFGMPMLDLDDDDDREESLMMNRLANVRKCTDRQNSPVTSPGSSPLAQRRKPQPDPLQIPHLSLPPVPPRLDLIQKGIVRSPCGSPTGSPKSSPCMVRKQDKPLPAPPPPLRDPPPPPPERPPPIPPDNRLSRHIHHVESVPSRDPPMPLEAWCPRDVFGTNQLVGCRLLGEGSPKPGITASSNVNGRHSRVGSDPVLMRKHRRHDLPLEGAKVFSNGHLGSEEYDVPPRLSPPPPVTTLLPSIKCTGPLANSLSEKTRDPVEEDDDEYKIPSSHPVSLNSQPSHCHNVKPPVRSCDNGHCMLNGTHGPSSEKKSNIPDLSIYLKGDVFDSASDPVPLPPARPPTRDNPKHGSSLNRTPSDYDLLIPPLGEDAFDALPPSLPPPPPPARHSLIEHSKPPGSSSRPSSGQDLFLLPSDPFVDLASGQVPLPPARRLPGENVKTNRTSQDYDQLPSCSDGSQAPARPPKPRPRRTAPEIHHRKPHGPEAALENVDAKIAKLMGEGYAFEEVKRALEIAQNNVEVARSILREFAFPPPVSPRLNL
structure (smiles),measurement,value
"CC1c2nc(N3CCC(O[C@H]4CC[C@H](CN5[C@H](C)CN(Cc6cc7c(c(C(F)(F)F)c6)CN(c6cccc(C8(Cc9nncn9C)COC8)c6)C7=O)C[C@H]5C)CC4)CC3)ccc2C(=O)N1C1CCC(=O)NC1=O (stereo partly drawn) [Example 250, 3-[7-methyl-5-oxo-2-(4-{[(1r*,4r*)-4-{[(2R,6R)-2,6-dimethyl-4-{[2-(3-{3-[(4-methyl-4H-1,2,4-triazol-3-yl)methyl]oxetan-3-yl}phenyl)-3-oxo-7-(trifluoromethyl)-2,3-dihydro-1H-isoindol-5-yl]methyl}piperazin-1-yl]methyl}cyclohexyl]oxy}piperidin-1-yl)-5H,6H,7H-pyrrolo[3,4-b]pyridin-6-yl]piperidine-2,6-dione]",DC50,< 5 nM
same,Dmax,35 to 70%
"CC1c2nc(N3CCC(O[C@H]4CC[C@@H](CN5C[C@@H]6C[C@H]5CN6Cc5cc6c(c(C(F)(F)F)c5)CN(c5cccc(C7(Cc8nncn8C)CC7)c5)C6=O)CC4)CC3)ccc2C(=O)N1C1CCC(=O)NC1=O (stereo partly drawn) [Example 218, 3-[7-methyl-5-oxo-2-(4-{[(1r,4r)-4-{[(1S,4S)-5-{[2-(3-{1-[(4-methyl-4H-1,2,4-triazol-3-yl)methyl]cyclopropyl}phenyl)-3-oxo-7-(trifluoromethyl)-2,3-dihydro-1H-isoindol-5-yl]methyl}-2,5-diazabicyclo[2.2.1]heptan-2-yl]methyl}cyclohexyl]oxy}piperidin-1-yl)-5H,6H,7H-pyrrolo[3,4-b]pyridin-6-yl]piperidine-2,6-dione]",DC50,5 to 50 nM
same,Dmax,35 to 70%
"CC(C)n1c(=O)n(C2CCC(=O)NC2=O)c2ccc(N3CCC(O[C@H]4CC[C@@H](CN5CCN(C[C@H]6CCCN(Cc7cc(C(F)(F)F)c8cn(-c9cccc(C%10(Cc%11nncn%11C)COC%10)c9)nc8c7)C6)C(C)(C)C5)CC4)CC3)cc21 (stereo partly drawn) [Example 266, 3-[2-oxo-3-(propan-2-yl)-5-(4-{[(1r,4r)-4-[(3,3-dimethyl-4-{[(3S)-1-{[2-(3-{3-[(4-methyl-4H-1,2,4-triazol-3-yl)methyl]oxetan-3-yl}phenyl)-4-(trifluoromethyl)-2H-indazol-6-yl]methyl}piperidin-3-yl]methyl}piperazin-1-yl)methyl]cyclohexyl]oxy}piperidin-1-yl)-2,3-dihydro-1H-1,3-benzodiazol-1-yl]piperidine-2,6-dione]",DC50,< 5 nM
same,Dmax,> 70%
"Cn1cnnc1CC1(c2cccc(-n3cc4c(C(F)(F)F)cc(CN5CCC[C@H](CN6CCC(CN7CCN(c8ccc9c(c8F)CN(C8CCC(=O)NC8=O)C9=O)CC7)CC6)C5)cc4n3)c2)COC1 (stereo partly drawn) [Example 256, 3-(4-fluoro-5-{4-[(1-{[(3R)-1-{[2-(3-{3-[(4-methyl-4H-1,2,4-triazol-3-yl)methyl]oxetan-3-yl}phenyl)-4-(trifluoromethyl)-2H-indazol-6-yl]methyl}piperidin-3-yl]methyl}piperidin-4-yl)methyl]piperazin-1-yl}-1-oxo-2,3-dihydro-1H-isoindol-2-yl)piperidine-2,6-dione]",DC50,> 500 nM
"CC1c2nc(N3CCC(O[C@H]4CC[C@H](CN5C[C@@H]6C[C@H]5CN6c5cc6c(c(C(F)(F)F)c5)CN(c5cccc([C@]7(Cc8nncn8C)C[C@H](C#N)C7)c5)C6=O)CC4)CC3)ccc2C(=O)N1C1CCC(=O)NC1=O (stereo partly drawn) [Example 182, (1r,3r)-3-[(4-methyl-4H-1,2,4-triazol-3-yl)methyl]-3-(3-{1-oxo-6-[(1S,4S)-5-{[(1r,4r)-4-({1-[6-(2,6-dioxopiperidin-3-yl)-7-methyl-5-oxo-5H,6H,7H-pyrrolo[3,4-b]pyridin-2-yl]piperidin-4-yl}oxy)cyclohexyl]methyl}-2,5-diazabicyclo[2.2.1]heptan-2-yl]-4-(trifluoromethyl)-2,3-dihydro-1H-isoindol-2-yl}phenyl)cyclobutane-1-carbonitrile]",DC50,5 to 50 nM
same,Dmax,< 35%
"C[C@@H]1CN(CC2CCC(OC3CCN(c4ccc5c(n4)[C@@H](C)N(C4CCC(=O)NC4=O)C5=O)CC3)CC2)CCN1Cc1cc2c(c(C(F)(F)F)c1)CN(c1cccc([C@]3(Cc4nncn4C)C[C@H](C#N)C3)c1)C2=O (single isomer, unassigned) [Example 239, (1rs&,3rs&)-3-[3-(6-{[(2R)-2-methyl-4-{[(1rs,4rs)-4-({1-[(7R*)-6-(2,6-dioxopiperidin-3-yl)-7-methyl-5-oxo-5H,6H,7H-pyrrolo[3,4-b]pyridin-2-yl]piperidin-4-yl}oxy)cyclohexyl]methyl}piperazin-1-yl]methyl}-1-oxo-4-(trifluoromethyl)-2,3-dihydro-1H-isoindol-2-yl)phenyl]-3-[(4-methyl-4H-1,2,4-triazol-3-yl)methyl]cyclobutane-1-carbonitrile]",DC50,< 5 nM
same,Dmax,> 70%
"COc1cc(N2CCN(Cc3cc4c(c(C(F)(F)F)c3)CN(c3cccc(C5(Cc6nncn6C)COC5)c3)C4=O)CC2)cc2c1C(=O)N(C1CCC(=O)NC1=O)C2=O (stereo not drawn) [Example 52, 2-(2,6-dioxopiperidin-3-yl)-4-methoxy-6-(4-{[2-(3-{3-[(4-methyl-4H-1,2,4-triazol-3-yl)methyl]oxetan-3-yl}phenyl)-3-oxo-7-(trifluoromethyl)-2,3-dihydro-1H-isoindol-5-yl]methyl}piperazin-1-yl)-2,3-dihydro-1H-isoindole-1,3-dione]",DC50,> 500 nM
"CC1c2nc(N3CCC(O[C@H]4CC[C@@H](CN5[C@@H](C)CN(Cc6cc7c(c(C(F)(F)F)c6)CN(c6cccc(C8(Cc9nncn9C)COC8)c6)C7=O)C[C@@H]5C)CC4)CC3)ccc2C(=O)N1C1CCC(=O)NC1=O (stereo partly drawn) [Example 249, 3-[7-methyl-5-oxo-2-(4-{[(1r*,4r*)-4-{[(2S,6S)-2,6-dimethyl-4-{[2-(3-{3-[(4-methyl-4H-1,2,4-triazol-3-yl)methyl]oxetan-3-yl}phenyl)-3-oxo-7-(trifluoromethyl)-2,3-dihydro-1H-isoindol-5-yl]methyl}piperazin-1-yl]methyl}cyclohexyl]oxy}piperidin-1-yl)-5H,6H,7H-pyrrolo[3,4-b]pyridin-6-yl]piperidine-2,6-dione]",DC50,< 5 nM
same,Dmax,> 70%
"Cn1cnnc1CC1(c2cccc(N3Cc4c(cc(CNC5CC(Oc6ccc7c(c6)C(=O)N(C6CCC(=O)NC6=O)C7=O)C5)cc4C(F)(F)F)C3=O)c2)COC1 (stereo not drawn) [Example 37, 2-(2,6-dioxopiperidin-3-yl)-5-[3-({[2-(3-{3-[(4-methyl-4H-1,2,4-triazol-3-yl)methyl]oxetan-3-yl}phenyl)-3-oxo-7-(trifluoromethyl)-2,3-dihydro-1H-isoindol-5-yl]methyl}amino)cyclobutoxy]-2,3-dihydro-1H-isoindole-1,3-dione]",DC50,> 500 nM
"CC1c2nc(N3CCC(OC4CCC(CN5[C@H](C)CN(Cc6cc7c(c(C(F)(F)F)c6)CN(c6cccc(C8(Cc9nncn9C)COC8)c6)C7=O)C[C@@H]5C)CC4)CC3)ccc2C(=O)N1C1CCC(=O)NC1=O (stereo partly drawn) [Example 243, 3-[7-methyl-5-oxo-2-(4-{[(1rs,4rs)-4-{[(2R,6S)-2,6-dimethyl-4-{[2-(3-{3-[(4-methyl-4H-1,2,4-triazol-3-yl)methyl]oxetan-3-yl}phenyl)-3-oxo-7-(trifluoromethyl)-2,3-dihydro-1H-isoindol-5-yl]methyl}piperazin-1-yl]methyl}cyclohexyl]oxy}piperidin-1-yl)-5H,6H,7H-pyrrolo[3,4-b]pyridin-6-yl]piperidine-2,6-dione]",DC50,< 5 nM
same,Dmax,> 70%
"CC1c2c(cc(CN3CCN(C[C@H]4CC[C@H](OC5CCN(c6ccc7c(c6F)CN(C6CCC(=O)NC6=O)C7=O)CC5)CC4)CC3(C)C)cc2C(F)(F)F)C(=O)N1c1cccc(C2(Cc3nncn3C)COC2)c1 (stereo partly drawn) [Example 279, 3-[4-fluoro-1-oxo-5-(4-{[(1r, 4r)-4-[(3,3-dimethyl-4-{[1-methyl-2-(3-{3-[(4-methyl-4H-1,2,4-triazol-3-yl)methyl]oxetan-3-yl}phenyl)-3-oxo-7-(trifluoromethyl)-2,3-dihydro-1H-isoindol-5-yl]methyl}piperazin-1-yl)methyl]cyclohexyl]oxy}piperidin-1-yl)-2,3-dihydro-1H-isoindol-2-yl]piperidine-2,6-dione]",DC50,> 500 nM
"COc1c(N2CCC(C(=O)N3CCC4(CC3)CN(c3cc5c(c(C(F)(F)F)c3)CN(c3cccc(C6(Cc7nncn7C)COC6)c3)C5=O)C4)CC2)ccc2c1CN(C1CCC(=O)NC1=O)C2=O (stereo not drawn) [Example 265, 3-[4-methoxy-5-(4-{2-[2-(3-{3-[(4-methyl-4H-1,2,4-triazol-3-yl)methyl]oxetan-3-yl}phenyl)-3-oxo-7-(trifluoromethyl)-2,3-dihydro-1H-isoindol-5-yl]-2,7-diazaspiro[3.5]nonane-7-carbonyl}piperidin-1-yl)-1-oxo-2,3-dihydro-1H-isoindol-2-yl]piperidine-2,6-dione]",DC50,5 to 50 nM
same,Dmax,< 35%
"O=C1CCC(N2Cc3c(ccc(N4CCC(O[C@H]5CC[C@H](CN6CCN(Cc7cc8c(c(C(F)(F)F)c7)CN(c7cccc(C9(Cc%10nnc[nH]%10)COC9)c7)C8=O)CC6)CC5)CC4)c3F)C2=O)C(=O)N1 (stereo partly drawn) [Example 197, 3-[4-fluoro-1-oxo-5-(4-{[(1r,4r)-4-[(4-{[3-oxo-2-(3-{3-[(4H-1,2,4-triazol-3-yl)methyl]oxetan-3-yl}phenyl)-7-(trifluoromethyl)-2,3-dihydro-1H-isoindol-5-yl]methyl}piperazin-1-yl)methyl]cyclohexyl]oxy}piperidin-1-yl)-2,3-dihydro-1H-isoindol-2-yl]piperidine-2,6-dione]",DC50,> 500 nM
